Test results reported in PubChem BioAssay AID1259411 (Chemical Carcinogenesis Research Information System (CCRIS), 2018).
Activity calls are given as the source filed them. No rule for the calls is given here. Where a SMILES comes first, the peptide text is derived from it.

Tested on: rodent carcinogenicity bioassays, tumor incidence
Test: CCRIS carcinogenicity studies
Details: Dose: 0
How it was run: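 Archive of carcinogenicity, mutagenicity, tumor promotion and tumor inhibition results drawn from journals, NCI reports and other sources, expert-reviewed; covers 1985-2011 and is no longer updated.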

| SMILES | carcinogen call (Species: MOUSE, Strain/Sex: SWISS/FEMALE, Route: INTRAVESICULAR, 4-4.4 MG IN CHOLESTEROL PELLET (STUDY DURATION: 26 WK)) | carcinogen call (Species: MOUSE, Strain/Sex: SWISS/FEMALE, Route: INTRAVESICULAR, 4-4.4 MG IN CHOLESTEROL PELLET (STUDY DURATION: 56 WK)) | carcinogen call (Species: Mouse, Strain/Sex: B6C3F1/Female, Route: Oral, 312, 625, 1250 ppm in feed for 105 wks, 312, 625, 1250 ppm in feed for 105 wks, Tumor Site: Type of Lesion: Histiocytic sarcoma: (0/50, 0/50, 5/50, 3/50) Liver: Hepatocellular adenoma (5/50, 4/50, 10/50, 8/50)) | carcinogen call (Species: Mouse, Strain/Sex: B6C3F1/Male, Route: Oral, 312, 625, 1250 ppm in feed for 105 wks, 312, 625, 1250 ppm in feed for 105 wks, Tumor Site: Type of Lesion: Liver: Hepatocellular adenoma (11/50, 15/50, 23/50, 23/50), Hepatocellular adenoma, hepatocellular carcinoma, or hepatob) | carcinogen call (Species: Rat, Strain/Sex: F344/N/Female, Route: Oral, 312, 625, 1250 ppm in feed for 105 wks, 312, 625, 1250 ppm in feed for 105 wks, Tumor Site: Type of Lesion: Mononuclear cell leukemia: (19/50, 25/50, 30/50, 29/50) Histiocytic sarcoma: (0/50, 0/50, 1/50, 2/50) Mammary gland: fib) | carcinogen call (Species: Rat, Strain/Sex: F344/N/Male, Route: Oral, 312, 625, 1250 ppm in feed for 105 wks, 312, 625, 1250 ppm in feed for 105 wks, Tumor Site: Type of Lesion: Kidney: Renal tubule adenoma (1/50, 1/10, 2/50, 4/50), Mononuclear cell leukemia: (27/50, 41/50, 39/50, 24/50)) |
| --- | --- | --- | --- | --- | --- | --- |
| COC(=O)[C@H](Cc1ccccc1)NC(=O)[C@@H](N)CC(=O)O (H-Asp-Phe-OMe) | inactive; negative | inactive; negative | – | – | – | – |
| O=C(c1ccccc1)c1ccccc1 | – | – | active; positive (ntp describes as some evidence); ntp describes results in liver as equ | active; positive (ntp describes as some evidence) | equivocal; mononuclear cell leukemia and histiocytic sarcoma incidences describe | active; positive trend for renal tubule adenoma (ntp describes as some evidence); mononu |
